Residues, ends and D or L forms follow the SMILES beside them. *: point of attachment. Cbz = O=C(OCc1ccccc1)*
What was measured:
MCF7 = assay: Cytotoxicity against human MCF7 cells after 48 hrs by MTT assay; format: functional, cell-based; conditions: MCF7, 48 h
SW480 = assay: Cytotoxicity against human SW480 cells after 48 hrs by MTT assay; format: functional, cell-based; conditions: SW480, 48 h
A549 = assay: Cytotoxicity against human A549 cells after 48 hrs by MTT assay; format: functional, cell-based; conditions: A549, 48 h
RAW264.7 [1] = assay: Cytotoxicity against mouse RAW264.7 cells after 18 hrs by MTS assay; format: cell-based; conditions: raw264.7, 18 h
SMMC-7721 = assay: Cytotoxicity against human SMMC7721 cells after 48 hrs by MTT assay; format: functional, cell-based; conditions: SMMC-7721, 48 h
RAW264.7 [2] = assay: Antiinflammatory activity in mouse RAW264.7 cells assessed as inhibition of LPS-induced nitric oxide production after 18 hrs by Griess method; format: functional, cell-based; conditions: RAW264.7, 18 h
HL-60 = assay: Cytotoxicity against human HL60 cells after 48 hrs by MTT assay; format: functional, cell-based; conditions: HL-60, 48 h

Structure (SMILES) | IC50 (RAW264.7 [2]) [µM] | IC50 (MCF7) [µM] | IC50 (SW480) [µM] | IC50 (A549) [µM] | Activity (RAW264.7 [1]) | IC50 (SMMC-7721) [µM] | IC50 (HL-60) [µM]
C=C1C(=O)[C@]23[C@H](O)[C@H]1C[C@@H](O)[C@H]2[C@]12CCCC(C)(C)[C@H]1[C@H](O)[C@@]3(O)OC2 | 1.7 | 5.1 | 2.5 | 8.6 | Non-toxic | 4.5 | 3.5
C=C1[C@@H](O)[C@@]23C(=CC[C@@H]1[C@H]2O)[C@@]12CO[C@@]3(O)[C@@H](O)[C@@H]1C(C)(C)CC[C@@H]2O | > 25 | > 10 | > 10 | > 10 | Non-toxic | > 10 | > 10
C=C1[C@@H](O)[C@]23[C@H](O)[C@H]1CC[C@H]2[C@@]12C(=O)O[C@]3(O)[C@@H](O)[C@@H]1C(C)(C)CC[C@@H]2O | 6.1 |  |  |  | Non-toxic |  | 
C=C1[C@H]2CC3=C4[C@](C2)(C(=O)O[C@H]2CCC(C)(C)[C@@H]([C@@H](O)O3)[C@]42C=O)[C@@H]1OC(C)=O | > 25 | > 10 | > 10 | > 10 | Non-toxic | > 10 | > 10
C=C1C(=O)[C@]23[C@H](OC(C)=O)[C@H]1C[C@H](OC(C)=O)[C@H]2[C@]12CCCC(C)(C)[C@H]1[C@H](O)[C@]3(O)OC2 | 6.3 | > 10 | 3.2 | > 10 | Non-toxic | > 10 | 4.6
CC(=O)O[C@H]1C(=O)[C@@]2(C)[C@H]([C@H](OC(=O)c3ccccc3)[C@]3(O)C[C@H](OC(=O)[C@H](O)[C@@H](NC(=O)c4ccccc4)c4ccccc4)C(C)=C1C3(C)C)[C@]1(OC(C)=O)CO[C@@H]1C[C@@H]2O [PACLITAXEL] |  | < 0.008 | 0.04 |  |  | < 0.008 | < 0.008
C[C@@H]1[C@@H]2C[C@H](O)[C@H]3[C@]45CCCC(C)(C)[C@H]4[C@H](O)[C@](O)(OC5)[C@@]3([C@@H]1O)[C@@H]2O | > 25 | > 10 | > 10 | > 10 | Non-toxic | > 10 | > 10
C=C1[C@@H](O)[C@]23[C@H](O)[C@H]1CC[C@H]2[C@@]12C(OC)O[C@]3(O)[C@@H](O)[C@@H]1C(C)(C)CC[C@@H]2O (stereo partly specified) | > 25 | > 10 | > 10 | > 10 | Non-toxic | > 10 | 5.3
C=C1C(=O)[C@]23[C@H](O)[C@H]1CC[C@H]2[C@@]12[C@@H](OC)O[C@]3(O)[C@@H](O)[C@@H]1C(C)(C)CC[C@@H]2O | > 25 | > 10 | 9.4 | > 10 | Non-toxic | > 10 | 7
C[C@@H]1[C@@H]2CC[C@H]3[C@]45CCCC(C)(C)[C@H]4[C@H](O)[C@](O)(OC5=O)[C@@]3([C@@H]1O)[C@@H]2O | > 25 | > 10 | > 10 | > 10 | Non-toxic | > 10 | > 10
C=C1[C@H]2CC[C@@H]3[C@](C2)(C(=O)O[C@@H]2CCC(C)(C)[C@H]4[C@H](O)O[C@@H](OC)[C@@]432)[C@@H]1OC(C)=O | > 25 | > 10 | > 10 | > 10 | Non-toxic | > 10 | > 10

Further compounds by falling IC50 (RAW264.7 [2]), results first:

IC50 (RAW264.7 [2]) [µM] | Structure (SMILES) | IC50 (MCF7) [µM] | IC50 (SW480) [µM] | IC50 (A549) [µM] | Activity (RAW264.7 [1]) | IC50 (SMMC-7721) [µM] | IC50 (HL-60) [µM]
5.2 | C=C1C(=O)[C@]23[C@H](O)[C@H]1CC[C@H]2[C@@]12CO[C@]3(O)[C@@H](O)[C@@H]1C(C)(C)CC[C@@H]2O [ORIDONIN] | > 10 | > 10 | > 10 | Non-toxic | > 10 | 2.5
3.9 | C=C1C(=O)[C@]23[C@H](O)[C@H]1CC[C@H]2[C@@]12[C@H](OCC)O[C@@]3(O)[C@@H](O)[C@@H]1C(C)(C)CC[C@@H]2O (relative stereo) | 8.4 | 7.8 | > 10 | Non-toxic | > 10 | 5.9
3.4 | C=C1C(=O)[C@]23C[C@H]1CC[C@H]2[C@@]12CO[C@]3(O)[C@@H](O)[C@@H]1C(C)(C)CC[C@@H]2O | 4.2 | 3.2 | 5.6 | Non-toxic | 5.9 | 7.9
2.3 | C=C1C(=O)[C@]23[C@H](O)[C@H]1CC[C@H]2[C@@]12C(OC)O[C@@]3(O)[C@@H](O)[C@@H]1C(C)(C)CC[C@H]2O (stereo partly specified) [RABDOTERNIN E] | > 10 | 4.1 | > 10 | Non-toxic | > 10 | 2.6
2 | C=C1C(=O)[C@]23C[C@H]1CC=C2[C@@]12CO[C@@]3(O)[C@@H](O)[C@@H]1C(C)(C)CC[C@@H]2O | 3.3 | 3.4 | 4.6 | Non-toxic | 3.5 | 8.8
2 | C=C1[C@H]2C[C@@H]3OC(=O)[C@@H]4C(C)(C)CC[C@@H]5OC(=O)[C@](C2)([C@@H]1O)[C@@H]3[C@]54C=O | > 10 | > 10 | > 10 | Non-toxic | > 10 | 6.1
1.9 | C=C1C(=O)[C@]23[C@H](O)[C@H]1CC[C@H]2[C@@]12CO[C@@]3(O)[C@@H](O)[C@@H]1C(C)(C)CC[C@@H]2OC(C)=O [LASIOKAURIN] | 2.5 | 2.4 | 6.7 | Non-toxic | 2.7 | 1.8
1.5 | C=C1[C@H]2C[C@H](O)[C@@H]3[C@](C2)(C(=O)O[C@@H]2CCC(C)(C)[C@H]4[C@H](O)O[C@H](OC)[C@@]432)[C@@H]1OC(C)=O (relative stereo) | 3.5 | 3.3 | > 10 | Non-toxic | > 10 | 4.3
1.5 | C=C1C(=O)[C@]23[C@H](O)[C@H]1CC[C@H]2[C@@]12[C@@H](OCCCC)O[C@@]3(O)[C@@H](O)[C@@H]1C(C)(C)CC[C@@H]2O (mixture of isomers) | 2.6 | 2.8 | 3.9 | Non-toxic | 3.2 | 1.2
1.1 | C=C1C(=O)[C@@]23[C@@H]4OC(C)(C)O[C@@]25OC[C@]2(CCCC(C)(C)[C@H]2[C@@H]5O)[C@@H]3[C@@H](O)C[C@@H]14 | 1.8 | 2 | 3.4 | Non-toxic | 2.6 | 1.5
0.1 | CC(C)C[C@@H](C=O)NC(=O)[C@H](CC(C)C)NC(=O)[C@H](CC(C)C)NC(=O)OCc1ccccc1 [MG-132] (Cbz-Leu-Leu-Leu-aldehyde) |  |  |  | Non-toxic |  | 

From ChEMBL document CHEMBL2406996, “Bioactive ent-kaurane diterpenoids from Isodon rosthornii” (J Nat Prod, 2013)
